From paper PMC4457528, “Identification of Novel Small Molecule Inhibitors of Oncogenic RET Kinase” (PLoS ONE, 2015)
Where two headings read alike, the source gives them in different places.

What was measured:
Assay in all cases: KinomeScan kinase panel, single concentration 10 µM
Format in all cases: binding
KinomeScan kinase panel [1] = biological target: T1, KinomeScan kinase panel (Homo sapiens, UniProt P06241); settings: FYN, 10 µM; read-out: score (%)
T1 construct: purchased DiscoveRx (KinomeScan)

KinomeScan kinase panel [2] = biological target: T2, KinomeScan kinase panel (Homo sapiens, UniProt P31152); settings: ERK4, 10 µM; read-out: score (%)
T2 construct: purchased DiscoveRx (KinomeScan)

KinomeScan kinase panel [3] = biological target: T3, KinomeScan kinase panel (Homo sapiens, UniProt P36894); settings: BMPR1A, 10 µM; read-out: score (%)
T3 construct: purchased DiscoveRx (KinomeScan)

KinomeScan kinase panel [4] = biological target: T4, KinomeScan kinase panel (Homo sapiens, UniProt P51817); settings: 10 µM, read-out: score (%)
T4 construct: purchased DiscoveRx (KinomeScan)
T4 sequence (P51817 1-358): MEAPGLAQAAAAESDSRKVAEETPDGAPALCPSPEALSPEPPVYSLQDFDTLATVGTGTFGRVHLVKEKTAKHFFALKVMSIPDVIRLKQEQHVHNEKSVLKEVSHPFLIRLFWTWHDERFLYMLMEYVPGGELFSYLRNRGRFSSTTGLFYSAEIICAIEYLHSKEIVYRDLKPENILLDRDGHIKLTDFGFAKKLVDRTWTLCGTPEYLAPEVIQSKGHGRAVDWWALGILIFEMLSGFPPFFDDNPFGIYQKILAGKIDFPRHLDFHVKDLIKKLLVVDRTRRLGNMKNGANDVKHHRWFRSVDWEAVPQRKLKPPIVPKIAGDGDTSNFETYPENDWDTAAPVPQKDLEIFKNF

KinomeScan kinase panel [5] = biological target: T5, KinomeScan kinase panel (Homo sapiens, UniProt P53778); settings: p38-gamma, 10 µM; read-out: score (%)
T5 construct: purchased DiscoveRx (KinomeScan)
T5 sequence (P53778 1-367): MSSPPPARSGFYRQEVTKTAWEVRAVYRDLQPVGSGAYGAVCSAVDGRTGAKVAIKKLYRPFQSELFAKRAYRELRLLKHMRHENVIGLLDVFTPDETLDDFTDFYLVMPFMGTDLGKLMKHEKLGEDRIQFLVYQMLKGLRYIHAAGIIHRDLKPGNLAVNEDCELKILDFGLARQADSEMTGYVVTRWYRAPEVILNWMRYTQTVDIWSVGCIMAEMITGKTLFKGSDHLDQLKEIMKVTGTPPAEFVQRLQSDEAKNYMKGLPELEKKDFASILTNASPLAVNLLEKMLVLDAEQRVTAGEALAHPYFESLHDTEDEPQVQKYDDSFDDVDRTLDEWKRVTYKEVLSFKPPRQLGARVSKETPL

KinomeScan kinase panel [6] = biological target: T6, KinomeScan kinase panel (Homo sapiens, UniProt Q02750); settings: MEK1, 10 µM; read-out: score (%)
T6 construct: purchased DiscoveRx (KinomeScan)

KinomeScan kinase panel [7] = biological target: T7, KinomeScan kinase panel (Homo sapiens, UniProt Q05397); settings: read-out: score (%)
T7 construct: purchased DiscoveRx (KinomeScan)

KinomeScan kinase panel [8] = biological target: T8, KinomeScan kinase panel (Homo sapiens, UniProt Q12852); settings: DLK, 10 µM
T8 construct: purchased DiscoveRx (KinomeScan)
T8 sequence (Q12852 1-859): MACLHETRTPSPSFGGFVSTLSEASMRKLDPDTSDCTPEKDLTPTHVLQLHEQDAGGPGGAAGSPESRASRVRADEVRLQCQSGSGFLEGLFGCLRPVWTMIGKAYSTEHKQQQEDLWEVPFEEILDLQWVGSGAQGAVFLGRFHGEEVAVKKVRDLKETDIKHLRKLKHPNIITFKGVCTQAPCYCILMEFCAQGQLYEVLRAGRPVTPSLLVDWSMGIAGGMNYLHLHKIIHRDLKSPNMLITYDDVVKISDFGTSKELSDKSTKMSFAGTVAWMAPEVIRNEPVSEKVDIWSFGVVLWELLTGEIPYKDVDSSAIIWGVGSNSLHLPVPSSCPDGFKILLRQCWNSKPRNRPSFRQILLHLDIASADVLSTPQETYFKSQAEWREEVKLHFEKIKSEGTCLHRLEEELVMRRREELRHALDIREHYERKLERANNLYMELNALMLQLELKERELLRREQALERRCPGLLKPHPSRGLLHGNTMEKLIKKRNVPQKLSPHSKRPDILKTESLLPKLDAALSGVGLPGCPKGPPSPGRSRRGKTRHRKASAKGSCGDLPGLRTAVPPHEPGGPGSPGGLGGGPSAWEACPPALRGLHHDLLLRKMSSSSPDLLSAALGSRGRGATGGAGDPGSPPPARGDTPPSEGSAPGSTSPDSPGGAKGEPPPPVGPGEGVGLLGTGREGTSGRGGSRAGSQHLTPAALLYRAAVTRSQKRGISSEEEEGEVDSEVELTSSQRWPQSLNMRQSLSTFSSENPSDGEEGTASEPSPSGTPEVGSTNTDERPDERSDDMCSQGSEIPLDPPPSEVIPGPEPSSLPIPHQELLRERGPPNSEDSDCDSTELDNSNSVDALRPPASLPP

KinomeScan kinase panel [9] = biological target: T9, KinomeScan kinase panel (Homo sapiens, UniProt Q14012); settings: CAMK1, 10 µM; read-out: score (%)
T9 construct: purchased DiscoveRx (KinomeScan)

KinomeScan kinase panel [10] = biological target: T10, KinomeScan kinase panel (Homo sapiens, UniProt Q15349); settings: 10 µM, read-out: score (%)
T10 construct: purchased DiscoveRx (KinomeScan)

KinomeScan kinase panel [11] = biological target: T11, KinomeScan kinase panel (Homo sapiens, UniProt Q15831); settings: LKB1, 10 µM; read-out: score (%)
T11 construct: purchased DiscoveRx (KinomeScan)
T11 sequence (Q15831 1-433): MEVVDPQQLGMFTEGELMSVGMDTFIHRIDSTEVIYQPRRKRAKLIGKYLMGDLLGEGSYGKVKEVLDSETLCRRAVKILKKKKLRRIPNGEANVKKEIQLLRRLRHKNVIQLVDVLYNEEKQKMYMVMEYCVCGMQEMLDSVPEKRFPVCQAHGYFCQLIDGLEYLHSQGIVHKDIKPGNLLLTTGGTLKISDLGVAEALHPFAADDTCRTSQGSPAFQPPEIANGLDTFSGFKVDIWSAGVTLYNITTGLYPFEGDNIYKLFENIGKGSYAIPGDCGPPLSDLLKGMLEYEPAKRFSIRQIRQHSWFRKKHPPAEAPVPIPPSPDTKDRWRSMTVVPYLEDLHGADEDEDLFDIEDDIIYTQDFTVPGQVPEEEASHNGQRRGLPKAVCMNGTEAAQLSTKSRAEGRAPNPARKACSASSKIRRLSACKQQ

KinomeScan kinase panel [12] = biological target: T12, KinomeScan kinase panel (Homo sapiens, UniProt Q16816); settings: PHKG1, 10 µM; read-out: score (%)
T12 construct: purchased DiscoveRx (KinomeScan)

KinomeScan kinase panel [13] = biological target: T13, KinomeScan kinase panel (Homo sapiens, UniProt Q9P1W9); settings: PIM2, 10 µM; read-out: score (%)
T13 construct: purchased DiscoveRx (KinomeScan)
T13 sequence (Q9P1W9 whole entry): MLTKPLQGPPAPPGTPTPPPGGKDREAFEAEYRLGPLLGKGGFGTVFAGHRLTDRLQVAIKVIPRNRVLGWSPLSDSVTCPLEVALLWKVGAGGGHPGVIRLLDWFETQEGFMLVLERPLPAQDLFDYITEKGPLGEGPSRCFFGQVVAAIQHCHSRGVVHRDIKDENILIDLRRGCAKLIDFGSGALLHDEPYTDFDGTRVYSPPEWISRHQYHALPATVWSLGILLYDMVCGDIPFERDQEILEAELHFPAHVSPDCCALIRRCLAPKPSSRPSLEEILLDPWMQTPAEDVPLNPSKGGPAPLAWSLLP

T1 sequence (P06241 whole entry): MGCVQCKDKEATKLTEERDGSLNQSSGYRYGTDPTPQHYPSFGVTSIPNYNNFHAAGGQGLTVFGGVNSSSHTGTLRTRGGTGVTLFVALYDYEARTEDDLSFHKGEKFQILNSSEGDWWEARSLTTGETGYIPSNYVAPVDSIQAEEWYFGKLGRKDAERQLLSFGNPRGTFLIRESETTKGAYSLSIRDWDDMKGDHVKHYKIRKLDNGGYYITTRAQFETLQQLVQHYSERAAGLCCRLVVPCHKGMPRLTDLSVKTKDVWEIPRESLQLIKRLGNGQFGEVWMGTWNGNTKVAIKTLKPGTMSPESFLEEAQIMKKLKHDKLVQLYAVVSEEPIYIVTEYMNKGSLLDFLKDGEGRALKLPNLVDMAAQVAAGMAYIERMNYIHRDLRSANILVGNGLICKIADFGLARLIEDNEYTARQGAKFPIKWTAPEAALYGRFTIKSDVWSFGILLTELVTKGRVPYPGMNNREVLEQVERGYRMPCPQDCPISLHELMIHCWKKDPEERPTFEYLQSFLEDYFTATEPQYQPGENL
T6 sequence (Q02750 whole entry): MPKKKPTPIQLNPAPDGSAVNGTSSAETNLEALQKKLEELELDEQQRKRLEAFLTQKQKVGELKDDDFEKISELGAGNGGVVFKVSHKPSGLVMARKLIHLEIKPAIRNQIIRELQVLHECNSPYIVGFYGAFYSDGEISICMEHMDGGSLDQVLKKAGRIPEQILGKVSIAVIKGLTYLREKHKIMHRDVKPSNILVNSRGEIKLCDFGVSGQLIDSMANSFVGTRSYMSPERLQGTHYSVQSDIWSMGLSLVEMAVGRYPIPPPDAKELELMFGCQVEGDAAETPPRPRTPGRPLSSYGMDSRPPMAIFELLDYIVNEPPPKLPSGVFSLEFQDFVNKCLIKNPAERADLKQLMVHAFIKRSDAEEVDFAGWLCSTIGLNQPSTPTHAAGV
T12 sequence (Q16816 whole entry): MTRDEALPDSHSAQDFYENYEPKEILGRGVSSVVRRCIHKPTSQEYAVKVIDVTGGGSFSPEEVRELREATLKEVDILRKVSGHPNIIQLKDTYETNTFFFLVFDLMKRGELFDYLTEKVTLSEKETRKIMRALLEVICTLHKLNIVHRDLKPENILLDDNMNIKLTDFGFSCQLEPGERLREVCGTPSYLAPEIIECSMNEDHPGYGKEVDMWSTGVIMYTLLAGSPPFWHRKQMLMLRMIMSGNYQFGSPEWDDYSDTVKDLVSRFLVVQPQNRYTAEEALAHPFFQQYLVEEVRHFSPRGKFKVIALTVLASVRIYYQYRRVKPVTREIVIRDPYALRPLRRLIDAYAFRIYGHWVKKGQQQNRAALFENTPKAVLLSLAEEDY
T2 sequence (P31152 whole entry): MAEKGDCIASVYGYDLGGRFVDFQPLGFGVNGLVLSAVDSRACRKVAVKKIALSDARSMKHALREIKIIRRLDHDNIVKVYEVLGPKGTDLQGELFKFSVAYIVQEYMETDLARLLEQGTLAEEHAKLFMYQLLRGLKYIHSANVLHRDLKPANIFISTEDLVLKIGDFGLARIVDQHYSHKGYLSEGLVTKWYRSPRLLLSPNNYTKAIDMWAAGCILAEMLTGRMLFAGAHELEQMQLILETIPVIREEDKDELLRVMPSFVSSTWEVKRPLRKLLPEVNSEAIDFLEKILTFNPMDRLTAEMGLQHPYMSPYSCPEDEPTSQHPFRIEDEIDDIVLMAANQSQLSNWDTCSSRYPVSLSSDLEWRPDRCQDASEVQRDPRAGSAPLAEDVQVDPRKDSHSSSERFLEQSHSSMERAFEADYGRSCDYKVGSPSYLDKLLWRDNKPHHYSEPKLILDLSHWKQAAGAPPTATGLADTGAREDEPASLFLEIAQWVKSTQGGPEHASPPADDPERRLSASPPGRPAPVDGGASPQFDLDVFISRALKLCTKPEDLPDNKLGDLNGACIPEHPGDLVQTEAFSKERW
T9 sequence (Q14012 whole entry): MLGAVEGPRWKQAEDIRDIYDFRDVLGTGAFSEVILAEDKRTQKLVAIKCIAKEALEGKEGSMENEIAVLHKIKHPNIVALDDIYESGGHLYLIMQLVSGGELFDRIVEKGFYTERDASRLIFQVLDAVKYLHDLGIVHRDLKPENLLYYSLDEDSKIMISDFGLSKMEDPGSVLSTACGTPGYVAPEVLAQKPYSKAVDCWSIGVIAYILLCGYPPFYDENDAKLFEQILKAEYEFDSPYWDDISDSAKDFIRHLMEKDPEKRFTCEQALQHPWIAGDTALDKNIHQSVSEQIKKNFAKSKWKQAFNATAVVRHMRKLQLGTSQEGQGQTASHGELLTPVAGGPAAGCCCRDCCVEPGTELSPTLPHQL
T7 sequence (Q05397 whole entry): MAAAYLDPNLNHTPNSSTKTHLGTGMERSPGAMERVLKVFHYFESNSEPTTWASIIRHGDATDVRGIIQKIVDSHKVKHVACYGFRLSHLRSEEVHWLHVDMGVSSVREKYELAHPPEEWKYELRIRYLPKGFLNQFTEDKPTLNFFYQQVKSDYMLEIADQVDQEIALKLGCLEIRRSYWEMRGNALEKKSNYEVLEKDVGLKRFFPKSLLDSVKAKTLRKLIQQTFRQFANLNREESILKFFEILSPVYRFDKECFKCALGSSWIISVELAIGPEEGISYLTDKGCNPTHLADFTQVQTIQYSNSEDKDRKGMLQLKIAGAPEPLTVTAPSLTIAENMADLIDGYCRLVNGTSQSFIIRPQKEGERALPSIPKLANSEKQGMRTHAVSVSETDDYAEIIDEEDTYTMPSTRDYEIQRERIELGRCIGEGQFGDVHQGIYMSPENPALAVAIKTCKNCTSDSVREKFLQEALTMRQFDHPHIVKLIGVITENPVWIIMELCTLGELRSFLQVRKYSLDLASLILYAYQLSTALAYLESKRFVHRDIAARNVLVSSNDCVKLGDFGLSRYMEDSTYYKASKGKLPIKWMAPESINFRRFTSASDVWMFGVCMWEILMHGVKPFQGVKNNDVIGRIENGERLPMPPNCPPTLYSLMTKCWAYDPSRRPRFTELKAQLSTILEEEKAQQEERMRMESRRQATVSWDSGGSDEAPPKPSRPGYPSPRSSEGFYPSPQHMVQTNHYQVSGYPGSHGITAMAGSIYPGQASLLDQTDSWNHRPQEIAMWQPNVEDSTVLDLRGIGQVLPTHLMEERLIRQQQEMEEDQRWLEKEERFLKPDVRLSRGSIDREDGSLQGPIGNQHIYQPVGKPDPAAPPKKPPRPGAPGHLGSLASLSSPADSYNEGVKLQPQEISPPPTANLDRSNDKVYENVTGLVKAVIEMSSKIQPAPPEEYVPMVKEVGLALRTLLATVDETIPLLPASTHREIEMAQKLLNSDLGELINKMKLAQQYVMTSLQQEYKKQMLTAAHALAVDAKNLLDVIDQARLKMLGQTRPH
T10 sequence (Q15349 whole entry): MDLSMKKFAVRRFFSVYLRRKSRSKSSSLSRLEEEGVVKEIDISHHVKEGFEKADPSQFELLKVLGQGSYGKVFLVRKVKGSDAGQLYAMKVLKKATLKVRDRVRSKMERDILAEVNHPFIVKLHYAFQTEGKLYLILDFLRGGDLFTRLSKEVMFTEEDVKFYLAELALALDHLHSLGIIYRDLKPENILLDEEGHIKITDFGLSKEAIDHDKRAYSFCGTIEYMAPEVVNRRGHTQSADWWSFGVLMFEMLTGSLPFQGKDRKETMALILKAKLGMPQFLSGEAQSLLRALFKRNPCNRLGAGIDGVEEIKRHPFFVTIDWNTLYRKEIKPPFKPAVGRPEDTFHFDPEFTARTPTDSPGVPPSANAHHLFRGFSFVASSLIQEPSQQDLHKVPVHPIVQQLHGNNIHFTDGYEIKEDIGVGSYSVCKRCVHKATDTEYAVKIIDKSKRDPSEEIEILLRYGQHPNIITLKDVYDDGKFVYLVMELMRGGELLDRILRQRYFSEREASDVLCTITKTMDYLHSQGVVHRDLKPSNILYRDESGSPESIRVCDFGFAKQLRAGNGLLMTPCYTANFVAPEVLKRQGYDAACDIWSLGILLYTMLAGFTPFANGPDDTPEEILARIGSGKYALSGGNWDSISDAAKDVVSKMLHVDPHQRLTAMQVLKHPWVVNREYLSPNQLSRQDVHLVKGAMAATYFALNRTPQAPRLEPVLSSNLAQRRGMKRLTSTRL
T3 sequence (P36894 24-532): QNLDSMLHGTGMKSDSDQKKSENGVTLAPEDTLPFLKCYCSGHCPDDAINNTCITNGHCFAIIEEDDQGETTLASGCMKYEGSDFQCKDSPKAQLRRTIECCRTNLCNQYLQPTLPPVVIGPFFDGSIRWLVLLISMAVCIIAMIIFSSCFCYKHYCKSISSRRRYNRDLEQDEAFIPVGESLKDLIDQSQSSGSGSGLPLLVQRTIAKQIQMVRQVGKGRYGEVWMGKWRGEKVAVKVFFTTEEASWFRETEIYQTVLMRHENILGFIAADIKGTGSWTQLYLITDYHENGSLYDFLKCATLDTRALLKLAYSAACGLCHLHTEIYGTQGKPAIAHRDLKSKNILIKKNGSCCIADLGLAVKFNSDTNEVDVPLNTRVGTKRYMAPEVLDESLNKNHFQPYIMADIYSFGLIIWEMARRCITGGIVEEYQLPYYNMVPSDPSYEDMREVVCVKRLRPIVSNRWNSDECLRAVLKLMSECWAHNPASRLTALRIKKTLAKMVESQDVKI

remaining binding at 10 µM (KinomeScan kinase panel [7]; PTK2, 10 µM) [%]	remaining binding at 10 µM (KinomeScan kinase panel [10]; RPS6KA2(Kin.Dom.1)) [%]	remaining binding at 10 µM (KinomeScan kinase panel [10]; RPS6KA2(Kin.Dom.2)) [%]	SMILES	remaining binding at 10 µM (KinomeScan kinase panel [1]) [%]	remaining binding at 10 µM (KinomeScan kinase panel [2]) [%]	remaining binding at 10 µM (KinomeScan kinase panel [3]) [%]	remaining binding at 10 µM (KinomeScan kinase panel [4]; PRKX) [%]	remaining binding at 10 µM (KinomeScan kinase panel [5]) [%]	remaining binding at 10 µM (KinomeScan kinase panel [6]) [%]	remaining binding at 10 µM (KinomeScan kinase panel [7]; FAK, 10 µM) [%]	score (%) (KinomeScan kinase panel [8])	remaining binding at 10 µM (KinomeScan kinase panel [9]) [%]	remaining binding at 10 µM (KinomeScan kinase panel [10]; kinase RPS6KA2(Kin.Dom.1-N-terminal)) [%]	remaining binding at 10 µM (KinomeScan kinase panel [10]; kinase RPS6KA2(Kin.Dom.2-C-terminal)) [%]	remaining binding at 10 µM (KinomeScan kinase panel [11]) [%]	remaining binding at 10 µM (KinomeScan kinase panel [12]) [%]	remaining binding at 10 µM (KinomeScan kinase panel [13]) [%]	remaining binding at 10 µM (KinomeScan kinase panel [4]; kinase PRKX) [%]	remaining binding at 10 µM (KinomeScan kinase panel [10]; kinase RSK3(Kin.Dom.1-N-terminal)) [%]	remaining binding at 10 µM (KinomeScan kinase panel [10]; kinase RSK3(Kin.Dom.2-C-terminal)) [%]
			CCN1CCN(Cc2ccc(NC(=O)c3ccc(C)c(NC(=O)c4cncc(-c5cccs5)c4)c3)cc2C(F)(F)F)CC1 [ALW-II-41-27]	0.25	> 30	> 30	> 30	3.6	> 30	> 30	28	> 30	> 30	> 30	> 30	> 30	22			
> 30	7.4	> 30	CCN1CCN(Cc2ccc(NC(=O)c3ccc(C)c(/C=C/c4cnc5[nH]ccc5c4Cl)c3)cc2C(F)(F)F)CC1 [HG-6-63-01, (E)-3-(2-(4-chloro-1H-pyrrolo[2,3-b]pyridin-5-yl)vinyl)-N-(4-((4-ethylpiperazin-1-yl)methyl)-3-(trifluoromethyl)phenyl)-4-methylbenzamide]	2.2	> 30	> 30	> 30	13	> 30		5.5	> 30			29	> 30	> 30			
			CCN1CCN(Cc2ccc(NC(=O)c3ccc(C)c(C#Cc4cccnc4)c3)cc2C(F)(F)F)CC1 [XMD15-44]	0.35	> 30	> 30		2.7	> 30	> 30	9.8	> 30			> 30	88	100	3.6	9.5	30
